Results taken from patent US20030065030A1, “Autonomic controlling agents and health drinks and foods” (priority 2001, published 2003).

Test system: 2DG hyperglycemic rats
Assay: anti-hyperglycemia in the 2DG hyperglycemic rats
Type: in vivo, rat
Details: 10 ng intracranially administered
Excerpt: Since blood glucose levels are expected to be reduced when the activity of the autonomic nervous system is controlled by carnosine at a low dose, the effect of carnosine on anti-hyperglycemia in the 2DG hyperglycemic rats was investigated according to the method of Chun et al. (Brain Research 809:165-174, 1998). Wistar male rats (initial weight, about 250 g) were used that had been acclimated for at least 10 days to an environment in a room illuminated with an incandescent light of 80 lux on the average for 12 hours at room temperature (24 +/− 1° C.) with free access to the feed.
Three days before the experiment, rats under anesthesia with pentobarbital (35 mg/kg body weight, intraperitoneal administration) received the insertion of a cardiac catheter comprising a silastic tubing (Dow Corning, Midland, Mich.) and a polyethylene tubing (Clay Adams, Parsippany, N.J.) into the right atrium and a polyethylene tubing into the right lateral cerebral ventricle (LCV). On the day of the experiment, carnosine dissolved in physiological saline was administered to the rats intracranially (0.01 ml) or intraperitoneally (0.1 ml) with the simultaneous administration into the rat LCV of 80 μmol 2-deoxy-D-glucose (2DG, 0.01 ml). The control rats received physiological saline instead of carnosine and an artificial cerebrospinal fluid in stead of 2DG, each at the same amount.
Sixty minutes after the administration of 2DG into the LCV, 300 μl of blood was taken via the cardiac catheter and the plasma level of glucose was determined. The glucose concentrations in the plasma were measured using the Fuji-Dri-chem system (Fuji Film Tokyo) according to the glucose oxidase method. Changes in plasma concentrations of glucose were expressed as a ratio (%) relative to the control value at 90 minutes after 2DG administration set at 100. Four or five rats were used in the experiments. Data were tested with ANOVA (p<0.05) and were expressed as mean +/− standard error.

Structure (SMILES): Cn1cncc1C[C@H](NC(=O)CCN)C(=O)O [anserine, reference compound]
- effect on hyperglycemia: did not suppress hyperglycemia
